Data set [1] addresses T1, Protein RecA (Mycobacterium tuberculosis, UniProt P9WHJ3).
T1 sequence (P9WHJ3 whole entry): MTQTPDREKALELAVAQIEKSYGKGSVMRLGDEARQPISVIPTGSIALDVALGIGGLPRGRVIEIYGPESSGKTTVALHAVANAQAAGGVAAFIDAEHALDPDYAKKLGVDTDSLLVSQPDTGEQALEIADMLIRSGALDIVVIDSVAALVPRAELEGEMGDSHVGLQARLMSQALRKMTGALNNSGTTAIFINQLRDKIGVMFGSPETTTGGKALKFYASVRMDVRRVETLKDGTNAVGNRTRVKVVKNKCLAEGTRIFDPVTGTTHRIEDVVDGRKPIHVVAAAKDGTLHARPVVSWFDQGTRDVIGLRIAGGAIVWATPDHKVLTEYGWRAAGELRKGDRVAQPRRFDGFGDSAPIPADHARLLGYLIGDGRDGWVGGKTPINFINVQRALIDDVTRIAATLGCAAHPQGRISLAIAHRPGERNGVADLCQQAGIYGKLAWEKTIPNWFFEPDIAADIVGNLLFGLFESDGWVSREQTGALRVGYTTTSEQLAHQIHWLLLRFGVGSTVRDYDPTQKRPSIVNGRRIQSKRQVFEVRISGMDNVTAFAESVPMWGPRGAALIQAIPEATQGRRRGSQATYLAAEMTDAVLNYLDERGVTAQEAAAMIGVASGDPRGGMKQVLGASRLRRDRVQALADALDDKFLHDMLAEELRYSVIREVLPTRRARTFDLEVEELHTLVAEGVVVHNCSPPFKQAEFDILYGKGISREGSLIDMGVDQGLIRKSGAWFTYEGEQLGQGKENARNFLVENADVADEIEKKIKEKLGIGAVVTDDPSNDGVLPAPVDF
The experiment in a line: Fluorescence Cell-Free Homogeneous Dose Retest to Identify Inhibitors of RecA-Intein Splicing Activity. [Related pubchem assays (depositor defined):AID2097, AID2223, AID489010, AID492950]. It is filed as functional.

Data set [2] addresses T2, Replicative DNA helicase DnaB (Mycobacterium tuberculosis, UniProt P9WMR3).
T2 sequence (P9WMR3 whole entry): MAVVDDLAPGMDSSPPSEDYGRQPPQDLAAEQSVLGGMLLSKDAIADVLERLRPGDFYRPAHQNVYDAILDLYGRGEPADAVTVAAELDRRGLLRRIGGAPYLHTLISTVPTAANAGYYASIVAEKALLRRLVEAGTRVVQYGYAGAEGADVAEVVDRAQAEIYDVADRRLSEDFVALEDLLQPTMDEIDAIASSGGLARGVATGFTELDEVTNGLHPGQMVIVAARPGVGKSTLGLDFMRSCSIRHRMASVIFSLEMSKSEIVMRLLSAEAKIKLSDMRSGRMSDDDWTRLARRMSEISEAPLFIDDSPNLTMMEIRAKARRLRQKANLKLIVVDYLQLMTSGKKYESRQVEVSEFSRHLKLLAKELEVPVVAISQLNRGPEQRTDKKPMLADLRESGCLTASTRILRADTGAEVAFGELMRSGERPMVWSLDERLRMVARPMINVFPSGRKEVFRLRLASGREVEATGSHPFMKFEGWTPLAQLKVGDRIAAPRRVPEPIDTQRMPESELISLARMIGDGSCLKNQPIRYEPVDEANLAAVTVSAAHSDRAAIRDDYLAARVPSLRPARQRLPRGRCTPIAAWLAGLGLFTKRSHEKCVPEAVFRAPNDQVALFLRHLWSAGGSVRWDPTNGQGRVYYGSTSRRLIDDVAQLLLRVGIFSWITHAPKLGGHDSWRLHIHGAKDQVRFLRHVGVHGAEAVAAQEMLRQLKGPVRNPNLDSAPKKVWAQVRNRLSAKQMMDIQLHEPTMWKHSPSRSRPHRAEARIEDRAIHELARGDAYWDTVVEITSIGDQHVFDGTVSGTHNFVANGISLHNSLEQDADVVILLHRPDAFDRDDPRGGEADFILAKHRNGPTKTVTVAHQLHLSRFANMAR
The experiment in a line: DnaB intein splicing inhibitors, dose response, biochemical, cell-free fluorescence (AID 449749). It is filed as functional.

The nature of data set [3]: Luminescence Cell-Based Dose Confirmation HTS to Identify Activators of 5'UTR Stem-Loop Driven Alpha-Synuclein mRNA Translation in H4 Neuroglioblastoma Cells. [Related pubchem assays: 1829 (Project Summary), 1814 (Primary HTS)]. It is filed as functional.
The subject of data set [4] is H4. The experiment in a line: Luminescence Cell-Based Dose Response HTS to Identify Activators of 5'UTR Stem-Loop Driven Prion Protein mRNA Translation in H4 Neuroglioblastoma Cells. [Related pubchem assays: 1829 (Project Summary), 1814 (Primary HTS)]. It is filed as functional. To be noted: Homo sapiens.
Data set [5] in a line: Luminescence Cell-Based Dose Response HTS to Identify Activators of Luciferase Translation or Activity in H4 […] Cells. [Related pubchem assays: 1829 (Project Summary), 1814 (Primary HTS)]. It is filed as functional.
Data set [6] in a line: Luminescence Cell-Based Dose Retest to Confirm Inhibitors of Cancer Stem Cells. [Related pubchem assays (depositor defined):AID2717, AID2721]. It is filed as functional. To be noted: Homo sapiens.
The target of data set [7] is Cytochrome P450 2C9 (Homo sapiens, UniProt P11712).
Cytochrome P450 2C9, sequence (P11712 whole entry): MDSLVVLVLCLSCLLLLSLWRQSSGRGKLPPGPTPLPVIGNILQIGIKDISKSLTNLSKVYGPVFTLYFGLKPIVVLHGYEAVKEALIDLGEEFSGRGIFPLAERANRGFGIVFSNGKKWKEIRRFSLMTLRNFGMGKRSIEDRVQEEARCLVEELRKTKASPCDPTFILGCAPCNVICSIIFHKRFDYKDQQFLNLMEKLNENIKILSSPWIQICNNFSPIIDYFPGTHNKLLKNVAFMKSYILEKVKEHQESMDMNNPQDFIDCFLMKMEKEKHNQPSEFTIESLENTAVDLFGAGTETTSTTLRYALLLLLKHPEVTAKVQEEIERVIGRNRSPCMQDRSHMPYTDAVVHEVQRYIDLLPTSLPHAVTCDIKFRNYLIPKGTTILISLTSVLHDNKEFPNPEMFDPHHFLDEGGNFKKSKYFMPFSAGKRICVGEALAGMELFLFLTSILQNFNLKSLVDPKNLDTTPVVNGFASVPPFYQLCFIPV
Data set [8] addresses Cytochrome P450 2C19 (Homo sapiens, UniProt P33261). In words: Cytochrome panel assay with activity outcomes. Panel member name: p450-cyp2c19 Compounds with AC50 equal or less than 10 uM are considered active. It is filed as functional.
Data set [9] can be described thus: HEp-2 cell cytotoxicity, dose response, cytotoxicity control for RSV inhibitor project, HTS (AID 2410). It is filed as functional. To be noted: human respiratory syncytial virus.
Data set [10] has as its target Cytochrome P450 3A4 (Homo sapiens, UniProt P08684).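 Also: CYP3A4 tested as one member of a cytochrome P450 panel screen.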
In data set [11] the target is T3, Cytochrome P450 1A2 (Homo sapiens, UniProt P05177).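 Also: PubChem cytochrome P450 panel assay, CYP1A2 panel member.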
T3 sequence (P05177 whole entry): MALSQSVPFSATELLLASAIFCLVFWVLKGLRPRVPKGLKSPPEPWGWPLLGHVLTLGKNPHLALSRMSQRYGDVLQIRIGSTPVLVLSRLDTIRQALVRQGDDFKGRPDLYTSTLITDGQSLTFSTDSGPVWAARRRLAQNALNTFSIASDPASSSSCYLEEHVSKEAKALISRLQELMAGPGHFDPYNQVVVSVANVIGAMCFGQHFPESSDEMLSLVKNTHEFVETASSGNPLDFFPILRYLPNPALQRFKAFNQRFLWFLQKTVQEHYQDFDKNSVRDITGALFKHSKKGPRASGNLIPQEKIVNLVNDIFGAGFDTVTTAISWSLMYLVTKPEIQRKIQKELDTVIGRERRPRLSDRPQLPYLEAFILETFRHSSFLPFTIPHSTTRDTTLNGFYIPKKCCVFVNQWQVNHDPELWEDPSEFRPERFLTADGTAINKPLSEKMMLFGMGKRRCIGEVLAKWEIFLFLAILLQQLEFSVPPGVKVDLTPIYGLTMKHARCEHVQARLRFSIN

Data set [12] in a line: control 3'UTR Renilla luciferase suppression, dose response, counter-screen for Shn3 inhibitor project, cell-based, Clone20-Shn3RL, cherry-picked (AID 624133). It is filed as functional. Background: A counterscreen serves to expose hits that act by an unwanted route or on another target.

Each structure is given as a SMILES string. Several values for one entry are separate records, joined by “and”; a condition that tells them apart may be missing. Identical values can stand only once. Activity calls are given as the source filed them.

Cytochrome P450 3A4, sequence (P08684 whole entry): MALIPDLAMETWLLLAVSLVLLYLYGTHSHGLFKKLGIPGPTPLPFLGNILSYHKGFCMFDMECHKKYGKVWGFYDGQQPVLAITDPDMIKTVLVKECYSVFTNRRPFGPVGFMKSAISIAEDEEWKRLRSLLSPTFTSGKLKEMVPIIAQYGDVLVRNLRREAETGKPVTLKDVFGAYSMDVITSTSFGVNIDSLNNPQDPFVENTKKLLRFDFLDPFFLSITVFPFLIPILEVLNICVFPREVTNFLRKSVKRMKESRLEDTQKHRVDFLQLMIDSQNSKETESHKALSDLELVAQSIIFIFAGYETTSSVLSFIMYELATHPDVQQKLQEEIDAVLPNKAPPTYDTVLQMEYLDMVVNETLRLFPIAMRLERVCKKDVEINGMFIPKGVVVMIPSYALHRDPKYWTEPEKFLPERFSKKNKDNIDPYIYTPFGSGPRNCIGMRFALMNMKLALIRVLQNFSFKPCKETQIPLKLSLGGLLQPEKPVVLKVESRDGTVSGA
Cytochrome P450 2C19, sequence (P33261 whole entry): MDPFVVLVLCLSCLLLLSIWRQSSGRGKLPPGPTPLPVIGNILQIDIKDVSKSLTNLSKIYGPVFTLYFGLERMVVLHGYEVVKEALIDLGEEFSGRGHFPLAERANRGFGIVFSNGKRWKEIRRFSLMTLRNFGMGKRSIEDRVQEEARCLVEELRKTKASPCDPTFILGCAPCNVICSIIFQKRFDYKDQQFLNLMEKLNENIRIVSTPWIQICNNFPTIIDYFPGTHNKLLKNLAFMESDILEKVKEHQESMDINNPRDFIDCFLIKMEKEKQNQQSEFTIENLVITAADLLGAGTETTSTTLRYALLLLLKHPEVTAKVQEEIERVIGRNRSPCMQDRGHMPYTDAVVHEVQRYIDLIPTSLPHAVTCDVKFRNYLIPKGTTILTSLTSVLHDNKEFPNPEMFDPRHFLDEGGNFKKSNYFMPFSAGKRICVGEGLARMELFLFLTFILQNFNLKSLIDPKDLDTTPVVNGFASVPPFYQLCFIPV

Turning to `O=C(Oc1ccccc1N1C(=O)CCC1=O)c1ccco1`, in [1], the EC50 (as a rule, the midpoint of the concentration-response curve) was 14.8 µM (active). In [2], the AC50 (commonly the midpoint of the concentration-response curve, whichever way the signal moves) is 6.7 µM (active).
For the molecule `C/C(=N/OCC(=O)Nc1ccccc1)c1cccs1`, the results for the EC50 in data set [3], in data set [4] and in data set [5] were 13.4 µM (active), 16.8 µM (active) and 26.4 µM (active), respectively.
In the case of `CCOC(=O)c1c(C)sc2c1N(C(=O)CCl)c1cc(Cl)ccc1S2`, the EC50 in data set [1] is 0.506 µM (active). In addition, the results for the AC50 in [6] and in data set [2] were 2.22 µM (active) and 3.1 µM (active), respectively.
In the case of `CN1CCc2nc(SCC(=O)OC(C)(C)C)c(C#N)cc2C1`, the EC50 in data set [3] is 20.8 µM (active); in data set [4] it was 108 µM (active); in [5], 15.4 µM (active).
Turning to `O=[N+]([O-])C(/C=C(\Cl)[N+](=O)[O-])=C1N(Cc2ccc(Cl)nc2)CCN1Cc1ccc(Cl)nc1`, the EC50 in data set [1] was 8.49 µM (active). The concentration at half-maximal activity (AC50) in data set [7] was 12.6 µM (inconclusive); in data set [8] (read-out: AC50), 31.6 µM (inconclusive); in [2], 11.4 µM (active).
With `CCn1c2ccccc2c2cnc(/N=C/N(C)C)c(C#N)c21`, the CC50 (usually the concentration giving 50% cytotoxicity) in data set [9] is 37 µM (active).
Consider `CN1CCC(c2c[nH]c3ccc(O)cc23)CC1`, for which the AC50 in data set [10] is 15.8 µM (inconclusive) and 31.6 µM (inconclusive); in data set [11], 31.6 µM (inconclusive).
On to `C=CCN1C[C@H](C)N([C@@H](c2ccccc2)c2ccc(C(=O)N(CC)CC)cc2)C[C@H]1C`, for which the AC50 in [10] was 2.51 µM (inconclusive); in data set [7], 31.6 µM (inconclusive); in [11] it was 31.6 µM (inconclusive); in data set [8] (read-out: AC50) it was 0.0631 µM (inconclusive).
In the case of `N#Cc1cc2cc3c(cc2nc1N1CCCCC1)OCCO3`, the EC50 was 0.139 µM (active) in data set [3], 1.42 µM (active) in data set [4] and 1.82 µM (active) in data set [5].
Take `COc1ccc(/C=C2\SC(=S)N(Cc3cccnc3)C2=O)cc1C`: the EC50 was 38 µM (active) in [3], 20.1 µM (active) in [4] and 11.1 µM (active) in [5].
With `COC(=O)c1ccc(S(=O)(=O)N2CCc3ccccc32)cc1`, the 50% effective concentration (EC50) in data set [3] is > 120 µM (not active); in data set [4] it was > 120 µM (not active); in [5], > 60 µM (not active).
With `Cc1cccc(-n2c(N)c(C(=O)NCCN3CCOCC3)c3nc4ccccc4nc32)c1`, the EC50 in data set [3], in [4] and in data set [5] was > 120 µM (not active) each time.
Regarding `Nc1cccc(OCc2nc(N)nc(N)c2-c2ccc(Cl)cc2)c1`, the half-maximal activity concentration (AC50) in [11] was 0.158 µM (inconclusive).
Take `Cc1ccc(C(=O)NC(=S)N2CC(C)OC(C)C2)cc1[N+](=O)[O-]` (configuration not stated): the AC50 is 22.4 µM (inconclusive) in [10], 14.1 µM (inconclusive) in [7], 15.8 µM (inconclusive) in data set [11] and “inconclusive” in data set [8].
For `COc1ccc(OCc2cc(C(=O)N3CCCC(OC)C3)no2)c2ccccc12` (configuration not stated), in data set [1], the concentration giving a half-maximal response (EC50) was 3.9 µM (active). In addition, the AC50 in [2] was 15 µM (active).
For the molecule `Cc1ccc(C(=O)C2=C(O)C(=O)N(Cc3cccnc3)C2c2ccccc2[N+](=O)[O-])cc1` (configuration not stated), the half-maximal effective concentration (EC50) was 30.1 µM (active) in data set [3], > 120 µM (not active) in [4] and 14.9 µM (active) in data set [5].
As to `CCCCN1CC(=O)C(c2nc3ccccc3s2)=C1N`, the figures for the EC50 in data set [3], in data set [4] and in data set [5] were 13.8 µM (active), > 120 µM (not active) and 30.8 µM (active), respectively.
For `C=CCNC(=O)/C(=C\c1ccc2c(c1)OCO2)NC(=O)c1ccc(Br)cc1`, the AC50 was 5.62 µM (inconclusive) in data set [7] and 14.1 µM (inconclusive) in [11].
In the case of `CC(C)N1CCN(Cc2c[nH]c3ccccc23)CC1CCO` (configuration not stated), the half-maximal activity concentration (AC50) in data set [12] is 28.6 µM (active).
For `Cc1nn(-c2ccc(N3CCCCC3)nn2)c(C)c1CCC(=O)Nc1cccc(F)c1`, the EC50 in data set [3] was 20.8 µM (active); in data set [5], 2.66 µM (active).
Turning to `C=CCNc1nc(-c2ccc(OC)cc2OC)cs1`, the half-maximal effective concentration (EC50) is 0.287 µM (active) in data set [3], 53.9 µM (active) in [4] and 26.8 µM (active) in data set [5].
In the same order, the values of `Cc1cn(CCC(=O)Nc2ccc(N3CCOCC3)cc2)c2ccccc12` are 11.5 µM (active), 13.9 µM (active) and 16.1 µM (active).
As for `Cc1ccc(S(=O)(=O)Oc2cc(S(=O)(=O)O)cc3cc(S(=O)(=O)O)cc(N)c23)cc1`, in data set [11], the AC50 is 2 µM (inconclusive).
As to `CCC/C=C(\CCC)C(NC(=O)c1ccc(C(F)(F)F)cc1)c1ccccc1` (configuration not stated), the concentration at half-maximal activity (AC50) is 3.16 µM (inconclusive) in [7] and 25.1 µM (inconclusive) in data set [11].
For the molecule `CC(=O)c1c(C)[nH]c(C(=O)CSc2ccc(F)cc2)c1C`, the EC50 in data set [3] was 20 µM (active); in data set [4], 71.1 µM (active); in data set [5] it was 30.2 µM (active).
In the case of `CC(=O)C12CC(C)=C(C)CC1CC1C3CCC4=CC(=O)CCC4(C)C3CCC12C` (configuration not stated), in data set [1], the half-maximal effective concentration (EC50) is 289 µM (inconclusive). Besides, the figures for the AC50 in [6] and in data set [2] were 5.78 µM (active) and 3.05 µM (active), respectively.
As to `Cn1c(=O)c(-c2cccs2)nc2cnc(N3CCOCC3)nc21`, the AC50 in [11] is 5.01 µM (inconclusive).
Consider `Fc1cccc2sc(Nc3nc4ccccc4s3)nc12`, for which the values for the 50% effective concentration (EC50) in data set [3], in [4] and in data set [5] were 0.106 µM (active), 1.58 µM (active) and 4.21 µM (active), respectively.
Take `O=C(CCN1C[C@H]2CC[C@H](CC2)C1)c1cccs1`: the concentration at half-maximal activity (AC50) in data set [11] was 5.01 µM (inconclusive).

These data come from ChEMBL document CHEMBL1201862, “PubChem BioAssay data set” (2004).
